Here are results for 24 compounds from US20240083857A1, “2-Methyl-Quinazolines” (Bayer Pharma Aktiengesellschaft, priority 2017, published 2024).

SMILES strings stand for the structures. Read-outs that look alike come from different tables or passages of the source.

Test [1] deals with K-Ras^G12C : hSOS1 interaction (Homo sapiens, UniProt Q07889). As to the kind of experiment: Biochemical assay 1: K-Ras^G12C interaction assay with hSOS1 (HTRF). The test is classed as binding. The note with it: for inhibition at 20 µM: read-out: Assay 1 (KRAS-SOS Interaction) activity expressed as % inhibition at 20 μM.
Test [2] has as its target human SOS1 (nucleotide exchange of K-Ras^G12C) (Homo sapiens, UniProt Q07889). Briefly: Biochemical assay 2: K-Ras^G12C activation assay by hSOS1 at high GTP concentration (HTRF). The following applies: for inhibition at 20 µM: read-out: Assay 2 (KRAS-Activation by SOS high GTP) activity expressed as % inhibition at 20 μM.
The target of test [3] is human SOS1 (loading of human K-Ras^G12C-GDP with fluorescent GTP-analog) (Homo sapiens, UniProt Q07889). Briefly: Biochemical assay 3: K-Ras^G12C activation assay by hSOS1 (HTRF). The following applies: for inhibition at 20 µM: read-out: Assay 3 (KRAS-Activation by SOS no GTP) activity expressed as % inhibition at 20 μM.
[4] abbreviates: read-out: Assay 1 (KRAS-SOS Interaction) activity expressed as IC50.
Setting [5] is: high GTP, read-out: Assay 2 (KRAS-Activation by SOS high GTP) activity expressed as IC50.
[6] abbreviates: no GTP, read-out: Assay 3 (KRAS-Activation by SOS no GTP) activity expressed as IC50.

With `COc1cc2nc(C)nc(N[C@H](C)c3cccc(-c4cccc5cnccc45)c3)c2cc1OC` [Example 39, N-{(1R)-1-[3-(isoquinolin-5-yl)phenyl]ethyl}-6,7-dimethoxy-2-methylquinazolin-4-amine], the values for the IC50 in test [1] (setting [4]), in test [2] (setting [5]) and in test [3] (setting [6]) were 1.46 µM, 1.83 µM and 3.05 µM, respectively.
With `COc1cc2nc(C)nc(N[C@@H](C)c3ccc(-c4cnc5[nH]ccc5c4)s3)c2cc1OC` (racemic) [Example 129, 6,7-dimethoxy-2-methyl-N-{1-[5-(1H-pyrrolo[2,3-b]pyridin-5-yl)thiophen-2-yl]ethyl}quinazolin-4-amine], the values for the IC50 in test [1] (setting [4]), in test [2] (setting [5]) and in test [3] (setting [6]) were 1.48 µM, 2.38 µM and 3.45 µM, respectively.
Consider `Cc1nc(NC(C)c2ccc(-c3ccccc3CN(C)C)s2)c2cc(N3CCCC3)ccc2n1` (stereo not drawn) [Example 415, N-[1-(5-{2-[(dimethylamino)methyl]phenyl}thiophen-2-yl)ethyl]-2-methyl-6-(pyrrolidin-1-yl)quinazolin-4-amine], for which the concentration for half-maximal inhibition (IC50) in test [1] (E-notation values, unit inferred, read-out: Assay 1 (KRAS-SOS interaction) IC50) was determined as 0.115 µM; in test [2] (E-notation values, unit inferred, 50 μM GTP, read-out: Assay 2 (KRAS-Activation, high GTP) IC50) it was 0.0885 µM; in test [3] (E-notation values, unit inferred, read-out: Assay 3 (KRAS-Activation) IC50), 0.0942 µM.
For the compound `COc1cc2nc(C)nc(N[C@@H](C)c3ccc(-c4ccc(C(C)=O)s4)s3)c2cc1OC` (racemic) [Example 162, 1-(5′-{1-[(6,7-dimethoxy-2-methylquinazolin-4-yl)amino]ethyl}-2,2′-bithiophen-5-yl)ethanone], the IC50 was determined as 8.76 µM in test [1] (setting [4]), 11.6 µM in test [2] (setting [5]) and 16 µM in test [3] (setting [6]).
On to `COc1cc2nc(C)nc(N[C@H](C)c3cccc(-c4ccc(CNS(C)(=O)=O)cc4)c3)c2cc1OC` [Example 72, N-[(3′-{(1R)-1-[(6,7-dimethoxy-2-methylquinazolin-4-yl)amino]ethyl}biphenyl-4-yl)methyl]methanesulfonamide], for which the IC50 came to 0.737 µM in test [1] (setting [4]), 0.666 µM in test [2] (setting [5]) and 0.882 µM in test [3] (setting [6]).
Consider `COc1cc2nc(C)nc(N[C@H](C)c3cccc(-c4ccccc4NS(C)(=O)=O)c3)c2cc1OC` [Example 121, N-(3′-{(1R)-1-[(6,7-dimethoxy-2-methylquinazolin-4-yl)amino]ethyl}biphenyl-2-yl)methanesulfonamide], for which the IC50 came to 0.452 µM in test [1] (setting [4]), 0.679 µM in test [2] (setting [5]) and 0.791 µM in test [3] (setting [6]).
Consider `COc1cc2nc(C)nc(N[C@H](C)c3cccc(-c4ccc(-c5nnc(C)o5)cc4)c3)c2cc1OC` [Example 59, 6,7-dimethoxy-2-methyl-N-{(1R)-1-[4′-(5-methyl-1,3,4-oxadiazol-2-yl)biphenyl-3-yl]ethyl}quinazolin-4-amine], for which the half-maximal inhibitory concentration (IC50) was 1.59 µM in test [1] (setting [4]), 0.77 µM in test [2] (setting [5]) and 0.965 µM in test [3] (setting [6]).
In the case of `COc1cc2nc(C)nc(N[C@H](C)c3cccc(-c4ccccc4NC(C)=O)c3)c2cc1OC` [Example 119, N-(3′-{(1R)-1-[(6,7-dimethoxy-2-methylquinazolin-4-yl)amino]ethyl}biphenyl-2-yl)acetamide], the IC50 in test [1] (setting [4]) is 0.858 µM; in test [2] (setting [5]) it was 1.28 µM; in test [3] (setting [6]) it was 1.48 µM.
With `CCC/C=C/c1cccc([C@@H](C)Nc2nc(C)nc3cc(OC)c(OC)cc23)c1` [Example 89, 6,7-dimethoxy-2-methyl-N-[(1R)-1-{3-[(1E)-pent-1-en-1-yl]phenyl}ethyl]quinazolin-4-amine], the values for the concentration for half-maximal inhibition (IC50) in test [1] (setting [4]), in test [2] (setting [5]) and in test [3] (setting [6]) were 1.68 µM, 2.68 µM and 4.26 µM, respectively.
Regarding `COc1cc2nc(C)nc(N[C@H](C)c3cccc(-c4ccc(C)cc4C)c3)c2cc1OC` [Example 94, N-[{1R)-1-(2′,4′-dimethylbiphenyl-3-yl)ethyl]-6,7-dimethoxy-2-methylquinazolin-4-amine], the IC50 in test [1] (setting [4]) is 2.42 µM; in test [2] (setting [5]), 3.14 µM; in test [3] (setting [6]), 4.28 µM.
As for `COc1cc2nc(C)nc(N[C@@H](C)c3ccc(-c4ccccc4S(=O)(=O)N(C)C)s3)c2cc1OC` (racemic) [Example 169, 2-(5-{1-[(6,7-dimethoxy-2-methylquinazolin-4-yl)amino]ethyl}thiophen-2-yl)-N,N-dimethylbenzenesulfonamide], the values for the IC50 in test [1] (setting [4]), in test [2] (setting [5]) and in test [3] (setting [6]) were 2.16 µM, 3.7 µM and 4.53 µM, respectively.
Regarding `CCC/C=C/c1ccc([C@H](C)Nc2nc(C)nc3cc(OC)c(OC)cc23)s1` (racemic) [Example 156, 6,7-dimethoxy-2-methyl-N-[1-{5-[(1E)-pent-1-en-1-yl]thiophen-2-yl}ethyl]quinazolin-4-amine], the results for the half-inhibitory concentration (IC50) in test [1] (setting [4]), in test [2] (setting [5]) and in test [3] (setting [6]) were 4.12 µM, 5.76 µM and 10.8 µM, respectively.
In the case of `COc1cc2nc(C)nc(N[C@H](C)c3cccc(-c4cccc(C(=O)N(C)C)c4)c3)c2cc1OC` [Example 106, 3′-{(1R)-1-[(6,7-dimethoxy-2-methylquinazolin-4-yl)amino]ethyl}-N,N-dimethylbiphenyl-3-carboxamide], the IC50 in test [1] (setting [4]) amounted to 1.41 µM; in test [2] (setting [5]), 1.53 µM; in test [3] (setting [6]) it was 2.05 µM.
Regarding `COc1cc2nc(C)nc(N[C@H](C)c3cc4cccc(OC)c4o3)c2cc1OC` (stereo in doubt) [Example 33, 6,7-dimethoxy-N-[1-(7-methoxy-1-benzofuran-2-yl)ethyl]-2-methylquinazolin-4-amine], the inhibition at 20 µM came to 53% in test [1], 24% in test [2] (high GTP) and 9% in test [3] (no GTP).
As to `COc1cc2nc(C)nc(N[C@H](C)c3cccc(-c4ccc(C(=O)NCCN(C)C)cc4)c3)c2cc1OC` [Example 74, 3′-{(1R)-1-[(6,7-dimethoxy-2-methylquinazolin-4-yl)amino]ethyl}-N-[2-(dimethylamino)ethyl]biphenyl-4-carboxamide], the IC50 in test [1] (setting [4]) is 0.149 µM; in test [2] (setting [5]), 0.223 µM; in test [3] (setting [6]), 0.261 µM.
`COc1cc2nc(C)nc(N[C@H](C)c3cccc(-c4cccc5[nH]ccc45)c3)c2cc1OC` [Example 110, N-{(1R)-1-[3-(1H-indol-4-yl)phenyl]ethyl}-6,7-dimethoxy-2-methylquinazolin-4-amine]: the IC50 in test [1] (setting [4]) is 1.04 µM; in test [2] (setting [5]), 0.908 µM; in test [3] (setting [6]), 1.19 µM.
On to `COc1cc2nc(C)nc(NC(C)c3ccc(-c4ccccc4CNCC(=O)N(C)C)s3)c2cc1OC` (stereo not drawn) [Example 280, 2-[2-(5-{1-[(6,7-dimethoxy-2-methylquinazolin-4-yl)amino]ethyl}thiophen-2-yl)benzyl]-N,N-dimethylglycinamide], for which the IC50 is 0.148 µM in test [1] (setting [4]), 0.12 µM in test [2] (setting [5]) and 0.135 µM in test [3] (setting [6]).
`COc1cc2nc(C)nc(N[C@@H](C)c3ccc(-c4cccc(-c5nnc(C)o5)c4)s3)c2cc1OC` (stereo in doubt) [Example 126, 6,7-dimethoxy-2-methyl-N-[1-{5-[3-(5-methyl-1,3,4-oxadiazol-2-yl)phenyl]thiophen-2-yl}ethyl]quinazolin-4-amine]: the results for the inhibition at 20 µM in test [1], in test [2] (high GTP) and in test [3] (no GTP) were 52%, 31% and 11%, respectively.
On to `COc1ncc(-c2ccc([C@H](C)Nc3nc(C)nc4cc(OC)c(OC)cc34)s2)cn1` (racemic) [Example 172, 6,7-dimethoxy-N-{1-[5-(2-methoxypyrimidin-5-yl)thiophen-2-yl]ethyl}-2-methylquinazolin-4-amine], for which the IC50 in test [1] (setting [4]) worked out at 4.07 µM; in test [2] (setting [5]) it was 7.33 µM; in test [3] (setting [6]), 9.19 µM.
For `COc1cc2nc(C)nc(N[C@@H](C)c3ccc(-c4cc(Cl)cc(Cl)c4)s3)c2cc1OC` (stereo in doubt) [Example 122, N-{1-[5-(3,5-dichlorophenyl)thiophen-2-yl]ethyl}-6,7-dimethoxy-2-methylquinazolin-4-amine], the inhibition at 20 µM amounted to 46% in test [1], 17% in test [2] (high GTP) and 21% in test [3] (no GTP).
With `COc1cc2nc(C)nc(N[C@H](C)c3cccc(-c4ccc(NC(=O)OC(C)(C)C)cc4)c3)c2cc1OC` [Example 92, tert-butyl (3′-{(1R)-1-[(6,7-dimethoxy-2-methylquinazolin-4-yl)amino]ethyl}biphenyl-4-yl)carbamate], the IC50 in test [1] (setting [4]) was 4.7 µM; in test [2] (setting [5]) it was 3.67 µM; in test [3] (setting [6]), 9.26 µM.
`CCOCc1ccccc1-c1cccc([C@@H](C)Nc2nc(C)nc3cc(OC)c(OC)cc23)c1` [Example 64, N-{(1R)-1-[2′-(ethoxymethyl)biphenyl-3-yl]ethyl}-6,7-dimethoxy-2-methylquinazolin-4-amine]: the values for the IC50 in test [1] (setting [4]), in test [2] (setting [5]) and in test [3] (setting [6]) were 1.4 µM, 1.96 µM and 2.21 µM, respectively.
The matching figures for `COc1cc2nc(C)nc(N[C@@H](C)c3ccc(-c4cc(N)ccc4C)s3)c2cc1OC` (racemic) [Example 146, N-{1-[5-(5-amino-2-methylphenyl)thiophen-2-yl]ethyl}-6,7-dimethoxy-2-methylquinazolin-4-amine]: 0.911 µM, 1.5 µM and 1.48 µM.
The like results for `COCc1ccccc1-c1cccc([C@@H](C)Nc2nc(C)nc3cc(OC)c(OC)cc23)c1` [Example 104, 6,7-dimethoxy-N-{(1R)-1-[2′-(methoxymethyl)biphenyl-3-yl]ethyl}-2-methylquinazolin-4-amine] were, in that order, 1.82 µM, 1.9 µM and 2.52 µM.
